Species on record: Rattus norvegicus
Test: DrugMatrix - Regimen: Daily Repeat
Format: toxicity, organism-based, Sprague-Dawley
Parameters: regimen Daily Repeat, gender Male, age 6-8 weeks
Details: in vivo, po, route oral GAVAGE, vehicle .5 % CMC; for ABSOLUTE BASOPHIL / ABSOLUTE EOSINOPHIL / ABSOLUTE LYMPHOCYTE / ABSOLUTE MONOCYTE / ABSOLUTE SEGMENTED NEUTROPHIL / BASOPHIL / EOSINOPHIL / ERYTHROCYTE COUNT / HEMATOCRIT / HEMOGLOBIN / LEUKOCYTE COUNT / LYMPHOCYTE / MEAN CORPUSCULAR HEMOGLOBIN / MEAN CORPUSCULAR HEMOGLOBIN CONCENTRATION / MEAN CORPUSCULAR VOLUME / MONOCYTE / NEUTROPHIL / NUCLEATED RED BLOOD CELLS / PLATELET COUNT: tissue Blood; for ALANINE AMINOTRANSFERASE / ALBUMIN / ALKALINE PHOSPHATASE / ASPARTATE AMINOTRANSFERASE / BLOOD UREA NITROGEN / CARBON DIOXIDE / CHLORIDE / CHOLESTEROL / CREATINE PHOSPHOKINASE / CREATININE / GLUCOSE / LIPASE / PHOSPHORUS / POTASSIUM / SODIUM / TOTAL BILIRUBIN / TOTAL PROTEIN / URIC ACID: tissue Plasma
[1] = 0.3 mg/kg, 72 h, dose level High, time 3 day
[2] = 0.3 mg/kg, 120 h, dose level High, time 5 day
[3] = […], 72 h, dose 0.014 mg/Kg, dose level Low, time 3 day
[4] = […], 120 h, dose 0.014 mg/Kg, dose level Low, time 5 day

With `COc1cc2c(c3oc(=O)c4c(c13)CCC4=O)[C@@H]1C=CO[C@@H]1O2` [AFLATOXIN] the “ABSOLUTE BASOPHIL” value [1] was 0 CELLS/uL, the “ABSOLUTE EOSINOPHIL” value [1] was 214.67 CELLS/uL and the “ABSOLUTE LYMPHOCYTE” value [1] was 14943 CELLS/uL. The “ABSOLUTE MONOCYTE” value [1] was 279 CELLS/uL, the “ABSOLUTE SEGMENTED NEUTROPHIL” value [1] was 1230 CELLS/uL and the BASOPHIL [1] was 0%. The EOSINOPHIL [1] was 1.33%, the “ERYTHROCYTE COUNT” value [1] was 5.62 x10E6/uL and the HEMATOCRIT [1] was 35.63%. The HEMOGLOBIN [1] was 13.67 G/DL, the “LEUKOCYTE COUNT” value [1] was 16.67 x10E3/uL and the LYMPHOCYTE [1] was 89.67%. The “MEAN CORPUSCULAR HEMOGLOBIN” value [1] was 24.33 pg, the “MEAN CORPUSCULAR HEMOGLOBIN CONCENTRATION” value [1] was 38.33 G/DL and the “MEAN CORPUSCULAR VOLUME” value [1] was 63.4 fL. The MONOCYTE [1] was 1.67%, the NEUTROPHIL [1] was 7.33% and the “NUCLEATED RED BLOOD CELLS” value [1] was 0.33 /100WBC. The “PLATELET COUNT” value [1] was 1408.33 x10E3/uL, the “ALANINE AMINOTRANSFERASE” value [1] was 50 u/L and the ALBUMIN [1] was 4.07 G/DL. The “ALKALINE PHOSPHATASE” value [1] was 424 u/L, the “ASPARTATE AMINOTRANSFERASE” value [1] was 109.33 u/L and the “BLOOD UREA NITROGEN” value [1] was 15.67 mg/dL. For the same molecule, the “CARBON DIOXIDE” value [1] was 24.33 mmol/L, the CHLORIDE [1] was 104 MEQ/L and the CHOLESTEROL [1] was 59.67 mg/dL. The “CREATINE PHOSPHOKINASE” value [1] was 568.33 u/L, the CREATININE [1] was 0.14 mg/dL and the GLUCOSE [1] was 152.67 mg/dL. It also gave an LIPASE [1] of 8.67 u/L, a PHOSPHORUS [1] of 13 mg/dL and a POTASSIUM [1] of 6.95 MEQ/L. The SODIUM [1] was 144.7 MEQ/L, the “TOTAL BILIRUBIN” value [1] was 0.23 mg/dL and the “TOTAL PROTEIN” value [1] was 5.27 G/DL. The “URIC ACID” value [1] was 1.73 mg/dL, the “ABSOLUTE BASOPHIL” value [2] was 0 CELLS/uL and the “ABSOLUTE EOSINOPHIL” value [2] was 83.33 CELLS/uL. The “ABSOLUTE LYMPHOCYTE” value [2] was 13811.33 CELLS/uL, the “ABSOLUTE MONOCYTE” value [2] was 454 CELLS/uL and the “ABSOLUTE SEGMENTED NEUTROPHIL” value [2] was 784.67 CELLS/uL. The BASOPHIL [2] was 0%, the EOSINOPHIL [2] was 0.67% and the “ERYTHROCYTE COUNT” value [2] was 5.95 x10E6/uL. The HEMATOCRIT [2] was 36.77%, the HEMOGLOBIN [2] was 14.07 G/DL and the “LEUKOCYTE COUNT” value [2] was 15.13 x10E3/uL. For the same molecule, the LYMPHOCYTE [2] was 91%, the “MEAN CORPUSCULAR HEMOGLOBIN” value [2] was 23.63 pg and the “MEAN CORPUSCULAR HEMOGLOBIN CONCENTRATION” value [2] was 38.23 G/DL. The “MEAN CORPUSCULAR VOLUME” value [2] was 61.8 fL, the MONOCYTE [2] was 3% and the NEUTROPHIL [2] was 5.33%. The “NUCLEATED RED BLOOD CELLS” value [2] was 0 /100WBC, the “PLATELET COUNT” value [2] was 1425.67 x10E3/uL and the “ALANINE AMINOTRANSFERASE” value [2] was 64.67 u/L. For the same molecule, the ALBUMIN [2] was 4.1 G/DL, the “ALKALINE PHOSPHATASE” value [2] was 290.33 u/L and the “ASPARTATE AMINOTRANSFERASE” value [2] was 102.33 u/L. The “BLOOD UREA NITROGEN” value [2] was 17.33 mg/dL, the “CARBON DIOXIDE” value [2] was 27 mmol/L and the CHLORIDE [2] was 105.5 MEQ/L. For the same molecule, the CHOLESTEROL [2] was 48 mg/dL, the “CREATINE PHOSPHOKINASE” value [2] was 345.67 u/L and the CREATININE [2] was 0.19 mg/dL. It also gave a GLUCOSE [2] of 158.67 mg/dL, an LIPASE [2] of 9 u/L and a PHOSPHORUS [2] of 12.27 mg/dL. The POTASSIUM [2] was 5.92 MEQ/L, the SODIUM [2] was 147.5 MEQ/L and the “TOTAL BILIRUBIN” value [2] was 0.13 mg/dL. The “TOTAL PROTEIN” value [2] was 5.53 G/DL, the “URIC ACID” value [2] was 1.93 mg/dL and the “ABSOLUTE BASOPHIL” value [3] was 0 CELLS/uL. For the same molecule, the “ABSOLUTE EOSINOPHIL” value [3] was 94 CELLS/uL, the “ABSOLUTE LYMPHOCYTE” value [3] was 13843.33 CELLS/uL and the “ABSOLUTE MONOCYTE” value [3] was 261.67 CELLS/uL. For the same molecule, the “ABSOLUTE SEGMENTED NEUTROPHIL” value [3] was 1234.33 CELLS/uL, the BASOPHIL [3] was 0% and the EOSINOPHIL [3] was 0.67%. The “ERYTHROCYTE COUNT” value [3] was 5.21 x10E6/uL, the HEMATOCRIT [3] was 33% and the HEMOGLOBIN [3] was 12.47 G/DL. The “LEUKOCYTE COUNT” value [3] was 15.43 x10E3/uL, the LYMPHOCYTE [3] was 89.67% and the “MEAN CORPUSCULAR HEMOGLOBIN” value [3] was 23.93 pg. The “MEAN CORPUSCULAR HEMOGLOBIN CONCENTRATION” value [3] was 37.8 G/DL, the “MEAN CORPUSCULAR VOLUME” value [3] was 63.23 fL and the MONOCYTE [3] was 1.67%. The NEUTROPHIL [3] was 8%, the “NUCLEATED RED BLOOD CELLS” value [3] was 0 /100WBC and the “PLATELET COUNT” value [3] was 1257 x10E3/uL. For the same molecule, the “ALANINE AMINOTRANSFERASE” value [3] was 47.67 u/L, the ALBUMIN [3] was 4.1 G/DL and the “ALKALINE PHOSPHATASE” value [3] was 302.67 u/L. The “ASPARTATE AMINOTRANSFERASE” value [3] was 99 u/L, the “BLOOD UREA NITROGEN” value [3] was 16.33 mg/dL and the “CARBON DIOXIDE” value [3] was 25.33 mmol/L. For the same molecule, the CHLORIDE [3] was 103.33 MEQ/L, the CHOLESTEROL [3] was 64.67 mg/dL and the “CREATINE PHOSPHOKINASE” value [3] was 408 u/L. The CREATININE [3] was 0.21 mg/dL, the GLUCOSE [3] was 142.33 mg/dL and the LIPASE [3] was 9 u/L. For the same molecule, the PHOSPHORUS [3] was 12.17 mg/dL, the POTASSIUM [3] was 6.42 MEQ/L and the SODIUM [3] was 143.57 MEQ/L. The “TOTAL BILIRUBIN” value [3] was 0.2 mg/dL, the “TOTAL PROTEIN” value [3] was 5.47 G/DL and the “URIC ACID” value [3] was 1.47 mg/dL. The “ABSOLUTE BASOPHIL” value [4] was 0 CELLS/uL, the “ABSOLUTE EOSINOPHIL” value [4] was 37.67 CELLS/uL and the “ABSOLUTE LYMPHOCYTE” value [4] was 14048 CELLS/uL. For the same molecule, the “ABSOLUTE MONOCYTE” value [4] was 191.67 CELLS/uL, the “ABSOLUTE SEGMENTED NEUTROPHIL” value [4] was 1122.67 CELLS/uL and the BASOPHIL [4] was 0%. For the same molecule, the EOSINOPHIL [4] was 0.33%, the “ERYTHROCYTE COUNT” value [4] was 5.76 x10E6/uL and the HEMATOCRIT [4] was 35.83%. The HEMOGLOBIN [4] was 13.37 G/DL, the “LEUKOCYTE COUNT” value [4] was 15.4 x10E3/uL and the LYMPHOCYTE [4] was 91%. For the same molecule, the “MEAN CORPUSCULAR HEMOGLOBIN” value [4] was 23.2 pg, the “MEAN CORPUSCULAR HEMOGLOBIN CONCENTRATION” value [4] was 37.3 G/DL and the “MEAN CORPUSCULAR VOLUME” value [4] was 62.2 fL. For the same molecule, the MONOCYTE [4] was 1.33%, the NEUTROPHIL [4] was 7.33% and the “NUCLEATED RED BLOOD CELLS” value [4] was 1.33 /100WBC. The “PLATELET COUNT” value [4] was 1353 x10E3/uL, the “ALANINE AMINOTRANSFERASE” value [4] was 48.33 u/L and the ALBUMIN [4] was 4.3 G/DL. The “ALKALINE PHOSPHATASE” value [4] was 352.33 u/L, the “ASPARTATE AMINOTRANSFERASE” value [4] was 90.33 u/L and the “BLOOD UREA NITROGEN” value [4] was 19.67 mg/dL. The “CARBON DIOXIDE” value [4] was 26.33 mmol/L, the CHLORIDE [4] was 105.67 MEQ/L and the CHOLESTEROL [4] was 63.33 mg/dL. The “CREATINE PHOSPHOKINASE” value [4] was 486.67 u/L, the CREATININE [4] was 0.21 mg/dL and the GLUCOSE [4] was 164.67 mg/dL. It also gave an LIPASE [4] of 8.33 u/L, a PHOSPHORUS [4] of 12.6 mg/dL and a POTASSIUM [4] of 6.34 MEQ/L. For the same molecule, the SODIUM [4] was 146.9 MEQ/L, the “TOTAL BILIRUBIN” value [4] was 0.2 mg/dL and the “TOTAL PROTEIN” value [4] was 6.03 G/DL. The “URIC ACID” value [4] was 1.93 mg/dL.
